Assays:
S. pneumoniae D39V [1] = test: fitness (endpoint OD595 vs no drug) (fraction); higher = more growth
Procedure, shortened: (§1)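 Fitness compares growth at the stationary-phase transition with the robust mean of no-drug control wells, as a ratio of optical densities. The ratio is capped at 1. Wells of 384-well plates held 30 µl, or 55 µl for S. pneumoniae, inoculated at OD595 0.01. Readings at OD595 every 30 min for 14 h at 37 °C were corrected against the first reading.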

B. subtilis 168 [2] = test: as above
Procedure, shortened: as §1

S. aureus Newman [3] = test: as above
Procedure, shortened: as §1

S. pneumoniae D39V [4] = test: Bliss interaction score (quartile over a dose matrix) (fitness difference); higher = more antagonism (negative = synergy)
Procedure, shortened: (§2)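 Fitness was OD595 at entry into stationary phase divided by the plate's robust no-drug mean and capped at 1; single-drug fitness was inferred from combination data. The Bliss score is observed minus expected (product) fitness, summarised by quartiles over technical, biological and donor/recipient replicates.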

S. aureus DSM 20231 = test: as above
Procedure, shortened: as §2

B. subtilis 168 [5] = test: as above
Procedure, shortened: as §2

S. aureus Newman [6] = test: as above
Procedure, shortened: as §2
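Wherever Bliss interaction score (quartile over a dose matrix) is given: first quartile when negative (synergy) and third quartile when positive (antagonism).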

O=C(O)c1cn(C2CC2)c2cc(N3CCNCC3)c(F)cc2c1=O [Ciprofloxacin] + Cc1cc(NS(=O)(=O)c2ccc(N)cc2)no1 [Sulfamethoxazol]
fitness
Settings | partner 1 µg/mL | partner 2 µg/mL | partner 4 µg/mL
B. subtilis 168 [2], first compound 0.0098 µg/mL | 0.89 | 0.858 | 0.913
B. subtilis 168 [2], first compound 0.0195 µg/mL | 0.734 | 0.702 | 0.671
B. subtilis 168 [2], first compound 0.039 µg/mL | 0.0972 | 0.132 | 0.0479
S. aureus Newman [3], first compound 0.0375 µg/mL | 0.732 | 0.715 | 0.722
S. aureus Newman [3], first compound 0.075 µg/mL | 0.623 | – | 0.643
S. aureus Newman [3], first compound 0.15 µg/mL | 0.124 | 0.0895 | 0.0354
S. pneumoniae D39V [1], first compound 0.125 µg/mL | 0.93 | 0.952 | 0.96
S. pneumoniae D39V [1], first compound 0.25 µg/mL | 0.846 | 0.863 | 0.821

fitness, one replicate
Settings | first compound 0.0098 µg/mL | first compound 0.0195 µg/mL | first compound 0.039 µg/mL | first compound 0.078 µg/mL | first compound 0.156 µg/mL | first compound 0.312 µg/mL
B. subtilis 168 [2], partner 0.5 µg/mL | 0.967 | 0.88 | 0.376 | – | – | –
S. aureus Newman [3], partner 2 µg/mL | – | – | – | 0.76 | 0.495 | 0.0936
S. aureus Newman [3], partner 4 µg/mL | – | – | – | 0.764 | 0.475 | 0.0929
S. aureus Newman [3], partner 8 µg/mL | – | – | – | 0.708 | 0.353 | 0.0905

Settings | Bliss interaction score
B. subtilis 168 [5] | -0.0827
S. aureus DSM 20231 | -0.0468
S. aureus Newman [6] | -0.0651
S. pneumoniae D39V [4] | 0.0466

O=C(O)c1cn(C2CC2)c2cc(N3CCNCC3)c(F)cc2c1=O [Ciprofloxacin] + CC1=C\[C@@H](O)CC(=O)Cc2nc(co2)C(=O)N2CCC=C2C(=O)O[C@H](C(C)C)[C@H](C)/C=C/C(=O)NC\C=C\1 [Virginiamycin M1]
fitness, one replicate
Settings | first compound 0.078 µg/mL | first compound 0.125 µg/mL | first compound 0.156 µg/mL | first compound 0.25 µg/mL | first compound 0.312 µg/mL | first compound 0.5 µg/mL
S. aureus Newman [3], partner 0.5 µg/mL | 0.638 | – | 0.45 | – | 0.128 | –
S. aureus Newman [3], partner 1 µg/mL | 0.785 | – | 0.503 | – | 0.125 | –
S. aureus Newman [3], partner 2 µg/mL | 0.72 | – | 0.472 | – | 0.161 | –
S. pneumoniae D39V [1], partner 0.15 µg/mL | – | 0.954 | – | 0.894 | – | 0.807
S. pneumoniae D39V [1], partner 0.3 µg/mL | – | 0.928 | – | 0.844 | – | 0.816

fitness
Settings | partner 0.0625 µg/mL | partner 0.125 µg/mL | partner 0.25 µg/mL | partner 0.5 µg/mL | partner 1 µg/mL | partner 2 µg/mL
B. subtilis 168 [2], first compound 0.0098 µg/mL | 0.941 | 0.896 | 0.859 | – | – | –
B. subtilis 168 [2], first compound 0.0195 µg/mL | 0.739 | 0.703 | 0.705 | – | – | –
B. subtilis 168 [2], first compound 0.039 µg/mL | 0.139 | 0.0393 | 0.0545 | – | – | –
S. aureus Newman [3], first compound 0.0375 µg/mL | 0.664 | 0.662 | 0.672 | – | – | –
S. aureus Newman [3], first compound 0.075 µg/mL | 0.616 | 0.658 | 0.703 | – | – | –
S. aureus Newman [3], first compound 0.15 µg/mL | 0.0348 | 0.0378 | 0.0632 | – | – | –
S. pneumoniae D39V [1], first compound 0.125 µg/mL | – | – | – | 0.969 | 0.96 | 0.909
S. pneumoniae D39V [1], first compound 0.25 µg/mL | – | – | – | 0.874 | 0.842 | 0.784

Settings | Bliss interaction score
B. subtilis 168 [5] | -0.0881
S. aureus DSM 20231 | 0.0396
S. aureus Newman [6] | 0.0616
S. pneumoniae D39V [4] | -0.0532

O=C(O)c1cn(C2CC2)c2cc(N3CCNCC3)c(F)cc2c1=O [Ciprofloxacin] + CCN(CC)CCOC(=O)c1ccc(N)cc1 [Procaine]
fitness
Settings | partner 85.5 µg/mL | partner 171 µg/mL | partner 342 µg/mL
B. subtilis 168 [2], first compound 0.0098 µg/mL | 0.883 | 0.918 | 0.918
B. subtilis 168 [2], first compound 0.0195 µg/mL | 0.688 | 0.755 | 0.721
B. subtilis 168 [2], first compound 0.039 µg/mL | 0.0386 | 0.0363 | 0.0396
S. aureus Newman [3], first compound 0.0375 µg/mL | 0.65 | 0.644 | 0.635
S. aureus Newman [3], first compound 0.075 µg/mL | 0.658 | – | –
S. pneumoniae D39V [1], first compound 0.125 µg/mL | ≥ 1 | ≥ 1 | ≥ 1
S. pneumoniae D39V [1], first compound 0.25 µg/mL | 0.9 | 0.923 | 0.91

Settings | Bliss interaction score
B. subtilis 168 [5] | -0.0792
S. aureus DSM 20231 | -0.053
S. aureus Newman [6] | 0.0759
S. pneumoniae D39V [4] | 0.0982

COc1cccc2c1C(=O)c1c(O)c3c(c(O)c1C2=O)C[C@@](O)(C(=O)CO)C[C@@H]3O[C@H]1C[C@H](N)[C@H](O)[C@H](C)O1 [Doxorubicin] + CC(C1CCC(C(O1)OC2C(CC(C(C2O)OC3C(C(C(CO3)(C)O)NC)O)N)N)N)NC [Gentamicin]
main component drawn
Settings | fitness
B. subtilis 168 [2], first compound 0.625 µg/mL, partner 0.0625 µg/mL | 0.905
B. subtilis 168 [2], first compound 0.625 µg/mL, partner 0.25 µg/mL | 0.079
B. subtilis 168 [2], first compound 1.25 µg/mL, partner 0.0625 µg/mL | 0.804
B. subtilis 168 [2], first compound 1.25 µg/mL, partner 0.25 µg/mL | 0.086
B. subtilis 168 [2], first compound 2.5 µg/mL, partner 0.25 µg/mL | 0.0548
S. aureus Newman [3], first compound 0.625 µg/mL, partner 0.375 µg/mL | 0.753
S. aureus Newman [3], first compound 0.625 µg/mL, partner 0.5 µg/mL | 0.841
S. aureus Newman [3], first compound 0.625 µg/mL, partner 0.75 µg/mL | 0.778
S. aureus Newman [3], first compound 0.625 µg/mL, partner 1 µg/mL | 0.937
S. aureus Newman [3], first compound 0.625 µg/mL, partner 1.5 µg/mL | 0.777
S. aureus Newman [3], first compound 0.625 µg/mL, partner 2 µg/mL | 0.875
S. aureus Newman [3], first compound 1.25 µg/mL, partner 0.375 µg/mL | 0.794
S. aureus Newman [3], first compound 1.25 µg/mL, partner 0.5 µg/mL | 0.783
S. aureus Newman [3], first compound 1.25 µg/mL, partner 0.75 µg/mL | 0.784
S. aureus Newman [3], first compound 1.25 µg/mL, partner 1 µg/mL | 0.826
S. aureus Newman [3], first compound 1.25 µg/mL, partner 1.5 µg/mL | 0.793
S. aureus Newman [3], first compound 1.25 µg/mL, partner 2 µg/mL | 0.887
S. aureus Newman [3], first compound 2.5 µg/mL, partner 0.375 µg/mL | 0.774
S. aureus Newman [3], first compound 2.5 µg/mL, partner 0.5 µg/mL | 0.734
S. aureus Newman [3], first compound 2.5 µg/mL, partner 0.75 µg/mL | 0.788
S. aureus Newman [3], first compound 2.5 µg/mL, partner 1 µg/mL | 0.779
S. aureus Newman [3], first compound 2.5 µg/mL, partner 1.5 µg/mL | 0.796
S. aureus Newman [3], first compound 2.5 µg/mL, partner 2 µg/mL | 0.809
S. pneumoniae D39V [1], first compound 0.25 µg/mL, partner 2 µg/mL | 0.919
S. pneumoniae D39V [1], first compound 0.25 µg/mL, partner 4 µg/mL | 0.919
S. pneumoniae D39V [1], first compound 0.25 µg/mL, partner 8 µg/mL | 0.882
S. pneumoniae D39V [1], first compound 0.5 µg/mL, partner 2 µg/mL | 0.937
S. pneumoniae D39V [1], first compound 0.5 µg/mL, partner 4 µg/mL | 0.943
S. pneumoniae D39V [1], first compound 0.5 µg/mL, partner 8 µg/mL | 0.848
S. pneumoniae D39V [1], first compound 1 µg/mL, partner 2 µg/mL | 0.806
S. pneumoniae D39V [1], first compound 1 µg/mL, partner 4 µg/mL | 0.822
S. pneumoniae D39V [1], first compound 1 µg/mL, partner 8 µg/mL | 0.76

main component drawn
Settings | Bliss interaction score
B. subtilis 168 [5] | -0.258
S. aureus DSM 20231 | 0.037
S. aureus Newman [6] | -0.0672
S. pneumoniae D39V [4] | 0.0449
